This passage reports GI50 and TGI results from PubChem BioAssay (NCI).

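These data come from cells grown in 96-well plates and exposed to compound for 48 hours at five concentrations. Abbreviation: GI50, concentration required for 50% inhibition of growth. TGI: concentration producing complete growth inhibition.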

Test systems include SNB-75 CNS; OVCAR-3 ovarian; KM12 colon; UO-31 renal; UACC-62 melanoma; MALME-3M melanoma; NCI-H522 lung; UACC-257 melanoma; T-47D breast; LOX IMVI melanoma.
Holding throughout (assay): NCI tumour cell line growth inhibition, 48 h

Take `COc1cc(NS(C)(=O)=O)ccc1Cc1c2ccccc2nc2ccccc12`: the GI50 is 0.188 µM in the experiment with SNB-75 CNS; 0.785 µM with OVCAR-3 ovarian; 0.396 µM in the experiment with KM12 colon; 0.126 µM with UO-31 renal; 0.101 µM with UACC-62 melanoma; 0.192 µM with MALME-3M melanoma. Further, the GI50 with NCI-H522 lung is 0.0712 µM; in the experiment on UACC-257 melanoma it was 0.493 µM; with T-47D breast it was 0.0535 µM; in the experiment on LOX IMVI melanoma, 0.0793 µM. In addition, the TGI is 1.54 µM with SNB-75 CNS; 2.06 µM in the experiment with OVCAR-3 ovarian; 2.01 µM with KM12 colon; 1.02 µM with UO-31 renal; 1.67 µM in the experiment with UACC-62 melanoma; 1.65 µM in the experiment on MALME-3M melanoma. Also, the TGI in the experiment on NCI-H522 lung was 0.961 µM; in the experiment with UACC-257 melanoma, 2.67 µM; in the experiment with T-47D breast, 1.37 µM; in the experiment on LOX IMVI melanoma, 1.48 µM.
Turning to `COC(=O)C1=C(C(=O)ON)[C@@H]2C=C[C@@]1([C@@H](Cc1ccccc1)Nc1ccccc1)O2`, the GI50 in the experiment with SNB-75 CNS was 12.4 µM; with OVCAR-3 ovarian it was 1.57 µM; with KM12 colon, 15.5 µM; in the experiment on UO-31 renal it was 1.51 µM; in the experiment on UACC-62 melanoma, 6.37 µM; in the experiment with MALME-3M melanoma, 1.69 µM. For the same compound, the GI50 in the experiment on NCI-H522 lung is 1.48 µM; with UACC-257 melanoma, 2.07 µM; with T-47D breast it was 1.61 µM; with LOX IMVI melanoma, 1.5 µM. The TGI was determined as 24.9 µM in the experiment on SNB-75 CNS; 3 µM in the experiment with OVCAR-3 ovarian; 32.1 µM with KM12 colon; 2.84 µM in the experiment on UO-31 renal; 19.3 µM in the experiment on UACC-62 melanoma; 3.2 µM in the experiment on MALME-3M melanoma. Besides, the TGI in the experiment with NCI-H522 lung is 3.41 µM; in the experiment with UACC-257 melanoma, 4.5 µM; in the experiment on T-47D breast, 4.17 µM; in the experiment with LOX IMVI melanoma, 2.88 µM.
As to `CCN1C(=O)N(CC)C2C1NN=c1s/c(=C\c3ccc(C(F)(F)F)cc3)c(=O)n12` (stereo not given), the GI50 is 0.18 µM in the experiment on SNB-75 CNS; 0.252 µM in the experiment on OVCAR-3 ovarian; 0.309 µM with KM12 colon; 0.839 µM with UO-31 renal; 0.577 µM with UACC-62 melanoma; 1.3 µM in the experiment on MALME-3M melanoma. In addition, the GI50 with NCI-H522 lung is 0.263 µM; with UACC-257 melanoma, 7.49 µM; in the experiment on T-47D breast, 0.36 µM; with LOX IMVI melanoma it was 0.483 µM. The TGI with SNB-75 CNS is 2.74 µM; in the experiment on OVCAR-3 ovarian it was 0.635 µM; with KM12 colon, over 34.9 µM; with UO-31 renal, over 42.9 µM; in the experiment on UACC-62 melanoma, over 44.7 µM; in the experiment on MALME-3M melanoma, over 47.2 µM. Also, the TGI is 4.13 µM in the experiment with NCI-H522 lung, 35.4 µM in the experiment with UACC-257 melanoma, 71.3 µM in the experiment on T-47D breast and over 34.6 µM in the experiment on LOX IMVI melanoma.
As for `CC1(C)N=c2cc3c(cc2N1c1ccc(Cl)cc1)=Nc1ccccc1N3c1ccc(Cl)cc1`, the GI50 was 2.45 µM in the experiment with SNB-75 CNS; 4.07 µM with OVCAR-3 ovarian; 6.84 µM in the experiment with KM12 colon; 2.96 µM in the experiment on UO-31 renal; 7.18 µM in the experiment on UACC-62 melanoma; 4.79 µM with MALME-3M melanoma. For the same compound, the GI50 with NCI-H522 lung is 3.93 µM; in the experiment with UACC-257 melanoma it was 5.52 µM; with T-47D breast, 3.91 µM; in the experiment with LOX IMVI melanoma, 5.44 µM. Besides, the TGI with SNB-75 CNS was 71.6 µM; in the experiment with OVCAR-3 ovarian it was 31.7 µM; with KM12 colon, over 100 µM; with UO-31 renal, over 100 µM; in the experiment with UACC-62 melanoma, over 100 µM; in the experiment on MALME-3M melanoma it was over 100 µM. For the same compound, the TGI was 74.6 µM in the experiment on NCI-H522 lung, over 100 µM with UACC-257 melanoma, over 100 µM in the experiment on T-47D breast and 24.8 µM in the experiment with LOX IMVI melanoma.
For the compound `O=C(Nc1ccccc1Cl)c1ccc(NC2=C(Cl)C(=O)N(C3CCCCC3)C2=O)cc1`, the GI50 is 8.64 µM in the experiment with SNB-75 CNS; 9.25 µM with OVCAR-3 ovarian; 16.9 µM in the experiment with KM12 colon; 16.6 µM with UO-31 renal; 6.78 µM with UACC-62 melanoma; 20.5 µM with MALME-3M melanoma. In addition, the GI50 in the experiment on NCI-H522 lung was 6.23 µM; in the experiment on UACC-257 melanoma, 5.29 µM; in the experiment on T-47D breast, 6.41 µM; in the experiment on LOX IMVI melanoma, 1.68 µM. Besides, the TGI with SNB-75 CNS was found to be 34.4 µM; in the experiment with OVCAR-3 ovarian, 28.4 µM; in the experiment with KM12 colon, 35.7 µM; with UO-31 renal, 42.3 µM; in the experiment on UACC-62 melanoma it was 26.5 µM; in the experiment on MALME-3M melanoma, 51.2 µM. The TGI in the experiment with NCI-H522 lung worked out at 34.7 µM; in the experiment on UACC-257 melanoma, 15 µM; with T-47D breast, 34.8 µM; in the experiment on LOX IMVI melanoma, 20.9 µM.
For the compound `CCCS(=O)(=O)Nc1cccc(Nc2ncnc3cc(NC(=O)CCl)ccc23)c1Cl`, the GI50 in the experiment with SNB-75 CNS was 2.46 µM; with OVCAR-3 ovarian it was 2.98 µM; in the experiment with KM12 colon it was 3.06 µM; with UO-31 renal, 4.06 µM; in the experiment on UACC-62 melanoma, 0.871 µM; in the experiment with MALME-3M melanoma it was 0.674 µM. The GI50 in the experiment on NCI-H522 lung was 0.432 µM; in the experiment on UACC-257 melanoma it was 2.46 µM; in the experiment on T-47D breast, 3.34 µM; in the experiment with LOX IMVI melanoma it was 0.892 µM. Besides, the TGI is 5.72 µM in the experiment with SNB-75 CNS; 6.62 µM in the experiment on OVCAR-3 ovarian; 7.13 µM in the experiment with KM12 colon; 7.65 µM with UO-31 renal; 3.68 µM in the experiment with UACC-62 melanoma; 4.28 µM in the experiment with MALME-3M melanoma. Moreover, the TGI with NCI-H522 lung came to 0.913 µM; in the experiment with UACC-257 melanoma, 7.57 µM; in the experiment with T-47D breast, 9.99 µM; in the experiment with LOX IMVI melanoma, 3.9 µM.
In the case of `COc1ccc(C2CC(c3ccc(OC)cc3O)=NN2c2ccc(S(N)(=O)=O)cc2)cc1` (stereo not given), the GI50 in the experiment on SNB-75 CNS is 20.8 µM; in the experiment on OVCAR-3 ovarian, 12.2 µM; in the experiment on KM12 colon it was 5.14 µM; with UO-31 renal, 2.99 µM; in the experiment with UACC-62 melanoma it was 8.76 µM; with MALME-3M melanoma, 20.2 µM. Moreover, the GI50 with NCI-H522 lung is 15.5 µM; in the experiment with UACC-257 melanoma, 15.9 µM; in the experiment with T-47D breast, 4.42 µM; in the experiment on LOX IMVI melanoma it was 14.1 µM. Also, the TGI in the experiment on SNB-75 CNS, with OVCAR-3 ovarian, in the experiment with KM12 colon, with UO-31 renal, in the experiment on UACC-62 melanoma and in the experiment with MALME-3M melanoma was over 100 µM each time. In addition, the TGI is over 100 µM in the experiment with NCI-H522 lung, over 100 µM in the experiment on UACC-257 melanoma, 85.6 µM in the experiment on T-47D breast and over 100 µM in the experiment on LOX IMVI melanoma.
Take `O=C(O)CN1C(=O)CN=C(c2ccccn2)c2cc(Cl)ccc21`: the TGI with SNB-75 CNS, with OVCAR-3 ovarian, with KM12 colon, with UO-31 renal, with UACC-62 melanoma and with MALME-3M melanoma was over 100 µM each time. For the same compound, the TGI in the experiment with NCI-H522 lung, in the experiment with UACC-257 melanoma, with T-47D breast and in the experiment on LOX IMVI melanoma was over 100 µM each time.
